In article PMC9500407, “Quantifying the transport of biologics across intestinal barrier models in real-time by fluorescent imaging” (Frontiers in Bioengineering and Biotechnology, 2022):
Like-named read-outs stand apart in the source and are kept apart here.

Columns and labels:
[1] = system: Caco-2 monolayers (Transwell); assay: In vitro drug absorption study, Transwell Caco-2 monolayer, Papp by LC-MS; conditions: Caco-2 Transwell, 19-21 days culture, apical pH 6.5 / basolateral pH 7.4 (TB, 10 mM HANKS/HBSS), 10 µM drug in 0.1% DMSO, 2 h, 37°C, static, mean ± SEM, at least three biological replicates
[2] = system: Caco-2 monoculture tubules (chip); assay: In vitro drug absorption study, OrganoPlate chip monoculture tubules, Papp by LC-MS; conditions: OrganoPlate Caco-2 monoculture tubules, day 4, A-B, apical pH 6.5 / basolateral pH 7.4, 10 µM drug in 0.1% DMSO, 2 h, 37°C, constant flow, mean ± SEM, at least three biological replicates
[3] = system: Caco-2:HT29-MTX E12 coculture tubules (chip); assay: Lucifer Yellow leakage after drug exposure, chip coculture; conditions: 100 µM LY co-applied, after 2 h of exposure to 10 µM drug
[4] = system: Caco-2 monolayers (Transwell); assay: Lucifer Yellow leakage after drug exposure, Transwell; conditions: 100 µM LY co-applied, after 2 h of exposure to 10 µM drug, Caco-2 Transwell
[5] = system: Caco-2:HT29-MTX E12 coculture tubules (chip); assay: In vitro drug absorption study, OrganoPlate chip coculture tubules, Papp by LC-MS; conditions: OrganoPlate Caco-2:HT29-MTX E12 6:1 coculture tubules, day 4, A-B, apical pH 6.5 / basolateral pH 7.4, 10 µM drug in 0.1% DMSO, 2 h, 37°C, constant flow, mean ± SEM, at least three biological replicates
[6] = system: Caco-2 monoculture tubules (chip); assay: Lucifer Yellow leakage after drug exposure, chip monoculture; conditions: 100 µM LY co-applied, after 2 h of exposure to 10 µM drug
[7] = cited from earlier work
Description: page 17: Supplementary Table 5. Direct statistical comparison of drug transport in Transwells, mono-and coculture tubules of 12 model drugs using an unpaired t-test.

[8] = cited from earlier work; remark: listed apart in the source
Description: page 15: Supplementary Table 4. Comparison of apparent permeability in chips using mono-and coculture tubules and Transwell system of 12 model drugs.

[9] = system: Caco-2:HT29-MTX E12 coculture tubules; assay: Image based analysis of SNAC induced semaglutide transport; format: in vitro ADME, human
Description: semaglutide (purple) and FITC-dextran (green). Scale bar is 500 µm. Data represent the mean
of at least two biological replicates per condition.

[10] = known route of the drug, no reference given
[11] = human, ref Takenaka et al., 2016

| Compound | TW Caco-2 Papp (apparent permeability coefficient from A B) [1] | Chip Caco-2 Papp (apparent permeability coefficient from A B) [2] | Lucifer Yellow leakage (%) Chip Caco-2:HT29-MTX E12 [3] | Lucifer Yellow leakage (%) Transwell [4] | Chip Caco-2:HT29-MTX E12 Papp (apparent permeability coefficient from A B) [5] | Lucifer Yellow leakage (%) Chip Caco-2 [6] | Transport route [7, 10] | FA in human % (fraction absorbed in human) ([8]; in vivo) | Transport route [7] | FA in human % (fraction absorbed in human) [8, 11] | FA in human % (fraction absorbed in human) ([8]; human, ref Youhanna and Lauschke, 2021) | Chip Caco-2:HT29-MTX E12 Papp (apparent permeability coefficient from A B) ([5]; listed as Erythromycin) | Effect on cell layer (micrographs) ([9]; 40 mM SNAC) | Effect on cell layer ([9]; SNAC 20 mM or 40 mM with semaglutide-Cy3 5 µM, approx. 4 h, bright field and dextran) |
| --- | --- | --- | --- | --- | --- | --- | --- | --- | --- | --- | --- | --- | --- | --- |
| COCCc1ccc(OCC(O)CNC(C)C)cc1 (centres unmarked) [Metoprolol] | 47.63± 5.44 × 10-6 cm/sec | 17.67± 4.98 × 10-6 cm/sec | 0.09% | 0.02% | 44.99 ± 1.05 × 10-6 cm/sec | 0.02% | – | – | – | – | – | – | – | – |
| CC(C)NCC(O)COc1cccc2ccccc12 (centres unmarked) [Propranolol] | 101.68± 23.00 × 10-6 cm/sec | 71.42± 5.08 × 10-6 cm/sec | 0.03% | 0.02% | 86.05 ± 21.67 × 10-6 cm/sec | 0.03% | – | – | – | – | – | – | – | – |
| C=C[C@H]1C[N@@]2CC[C@H]1C[C@@H]2[C@@H](O)c1ccnc2ccc(OC)cc12 [Quinidine] | – | – | – | – | – | – | Transcellular | – | – | – | – | – | – | – |
| CC(C)(C)NCC(O)c1cc(O)cc(O)c1 (centres unmarked) [Terbutaline] | 1.85± 0.10 × 10-6 cm/sec | 7.11± 0.43 × 10-6 cm/sec | 0.01% | 0.02% | 5.09 ± 0.06 × 10-6 cm/sec | 0.02% | – | 44% | Paracellular | – | – | – | – | – |
| CN(C)C(=O)C(CCN1CCC(O)(c2ccc(Cl)cc2)CC1)(c1ccccc1)c1ccccc1 [Loperamide] | 58.60± 8.62 × 10^-6 cm/sec | 11.03± 1.62 × 10^-6 cm/sec | 0.02% | 0.02% | 2.75 ± 1.13 × 10^-6 cm/sec | 0.68% | – | – | – | – | – | – | – | – |
| CNC(=C[N+](=O)[O-])NCCSCc1ccc(CN(C)C)o1 [Rantidine] | 3.22± 0.93 × 10^-6 cm/sec | 1.80± 0.27 × 10^-6 cm/sec | 0.01% | 0.02% | 2.29 ± 0.27 × 10^-6 cm/sec | 0.02% | Paracellular | – | – | 50% | – | – | – | – |
| CC[C@H]1OC(=O)[C@H](C)[C@@H](O[C@H]2C[C@@](C)(OC)[C@@H](O)[C@H](C)O2)[C@H](C)[C@@H](O[C@@H]2O[C@H](C)C[C@H](N(C)C)[C@H]2O)[C@](C)(O)C[C@@H](C)C(=O)[C@H](C)[C@@H](O)[C@]1(C)O [Erythromicin] | 1.2e-06 cm/s | 1.33e-06 cm/s | 0.01% | 0.03% | 0.99 ± 0.32 × 10^-6 cm/sec | 0.04% | – | – | – | – | 35% | 9.9e-07 cm/s | – | – |
| CC(=O)CC(c1ccccc1)c1c(O)c2ccccc2oc1=O (centres unmarked) [Warfarin] | 0.00024341 cm/s | 160.97± 40.49 × 10-6 cm/sec | – | 0.02% | 0.00030039 cm/s | – | – | – | – | – | – | – | – | – |
| NC(=O)N1c2ccccc2C=Cc2ccccc21 [Carbamazepine] | 204.43± 9.20 × 10-6 cm/sec | 0.00021399 cm/s | 0.01% | 0.02% | 140.04 ± 6.25 × 10-6 cm/sec | 0.02% | – | 100% | Transcellular | – | – | – | – | – |
| CN/C(=N/CCSCc1nc[nH]c1C)NC#N [Cimetidine] | 5.08± 1.39 × 10^-6 cm/sec | 9.79± 3.41 × 10^-6 cm/sec | 0.02% | 0.03% | 11.87 ± 3.41 × 10^-6 cm/sec | 0.03% | – | – | Paracellular | 62% | – | – | – | – |
| O=C([O-])CCCCCCCNC(=O)c1ccccc1O.[Na+] [SNAC, salcaprozate sodium] | – | – | – | – | – | – | – | – | – | – | – | – | partial removal of cell layer | irreversible damage to the cell layer |
